Measured values taken from patent US7781410B2 (priority 2006, dated 2010).

System: Sebocytes
Assay: cells
Assay type: cell-based, human
Details: for % Reduction in Lipid Synthesis in Sebocytes [3 uM]: compound at 3 uM; for inhibition at 3 µM: Homo sapiens, read-out: % Reduction in Lipid Synthesis in Sebocytes [3 uM]; for % Cholera Toxin Reduction: Green Tea Extract 0.0 μg/mL

SMILES	% Reduction in Lipid Synthesis in Sebocytes [3 uM]	also measured
COc1ccc(/C=C/C(=O)c2cc(OC)ccc2O)c(OC)c1	Not Active	–
COc1cc(O)c(C(=O)/C=C/c2ccc(OC)c(OC)c2)c(O)c1	–	inhibition at 3 µM: 20.5%
COc1c(/C=C/C(=O)c2ccc(O)cc2)ccc(O)c1O	Not Active	–
COc1ccc(C(=O)/C=C/c2ccc(OC)cc2OC)c(O)c1	Not Active	–
O=C1c2ccc(O)cc2OC1Cc1ccc(O)c(O)c1 (centres unmarked)	–	inhibition at 3 µM: 26.9%
COc1ccc(C(=O)/C=C/c2cc(OC)c(OC)c(OC)c2)c(O)c1	Not Active	–
COc1ccc(/C=C/C(=O)c2c(O)cc(OC)cc2OC)cc1	–	inhibition at 3 µM: 28.4%
O=C(/C=C/c1ccc(O)c(O)c1)c1ccc(OC2O[C@H](CO)C(O)[C@H](O)C2O)c(O)c1O (some centres unmarked)	Not Active	–
COc1ccc(C(=O)/C=C/c2cccc(OC)c2OC)c(O)c1	Not Active	–
COc1ccc(O)c(C(=O)/C=C/c2ccc(OC)c(OC)c2)c1	Not Active	–
COc1cc(/C=C/C(=O)c2ccc(O)cc2C)cc(OC)c1OC	Not Active	–
COc1cc(/C=C/C(=O)c2ccc(O)cc2O)ccc1O	Not Active	–
COc1cc(OC)c(C(=O)/C=C/c2ccc(OC)c(O)c2)c(OC)c1	Not Active	–
COc1cc(O)c(C(=O)/C=C/c2ccc(O)c(OC)c2)c(OC)c1	Not Active	–
COc1ccc(C(=O)/C=C/c2ccc(OC)c(OC)c2)c(O)c1	–	inhibition at 3 µM: 12.4%
COc1ccc(/C=C/C(=O)c2ccc(O)cc2O)cc1OC	Not Active	–
COc1cc(OC)c(C(=O)/C=C/c2ccc(OC)c(OC)c2)c(OC)c1	Not Active	–
O=C(/C=C/c1ccc(O)c(O)c1)c1c(O)cc(O)cc1O	Not Active	–
COc1cc(OC)c(C(=O)/C=C/c2ccc(O)cc2)c(OC)c1	Not Active	–
COc1cc(OC)c(C(=O)/C=C/c2ccc(O)cc2OC)c(OC)c1	Not Active	–
COc1cc(O)c(C(=O)/C=C/c2ccc(OC)c(O)c2)c(OC)c1	–	inhibition at 3 µM: 25.6%
O=C(/C=C/c1ccc(O)c(O)c1)c1ccc(O)cc1O	–	inhibition at 3 µM: 12.8%
COc1cccc(/C=C/C(=O)c2ccc(O)cc2O)c1OC	Not Active	–
COc1ccc(O)c(C(=O)/C=C/c2cccc(OC)c2OC)c1	–	inhibition at 3 µM: 28.7%
O=C(/C=C/c1ccccc1O)c1ccccc1O [2,2′-dihydroxy-chalcone]	–	% Cholera Toxin Reduction (2,2′-dihydroxychalcone 0.3 μM): 14.3%; % Cholera Toxin Reduction (2,2′-dihydroxychalcone 1.0 μM): 38.2%; % Cholera Toxin Reduction (2,2′-dihydroxychalcone 3.0 μM): 50.8%
COc1ccc(/C=C/C(=O)c2c(O)cc(OC)c(OC)c2OC)c(OC)c1	Not Active	–
O=C(/C=C/c1ccccc1O)c1ccccc1O [drawing 18]	–	inhibition at 3 µM: 47.3%
